Experimental data from US8993630B2, “Substituted sulphonamido phenoxybenzamides” (Bayer Intellectual Property GmbH, priority 2008, dated 2015).

How the values were obtained:
MEK1 = target: T1, MEK1 (Homo sapiens, UniProt Q02750); assay: MEK1 activation kinase assay (Cot1/GST-MEK1 HTRF); assay type: biochemical; details: GST-MEK1 substrate, read-out: IC50, inhibition of MEK1 activation
T1 construct: purchased Millipore 14-420 (GST-MEK1); 14-703 (Cot1); host or cells: Cot1: insect cells (SF21)
Text: The kinase Cot1 activates MEK1 by phosphorylating its activation loop. The inhibitory activity of compounds of the present invention on this activation of MEK1 was quantified employing the HTRF assay described in the following paragraphs.
N-terminally His6-tagged recombinant kinase domain of the human Cot1 (amino acids 30-397, purchased from Millipore, cat. no 14-703) expressed in insect cells (SF21) and purified by Ni-NTA affinity chromatography was used as kinase. As substrate for the kinase reaction the unactive C-terminally His6-tagged GST-MEK1 fusion protein (Millipore cat. no 14-420) was used.
For the assay 50 nl of a 100fold concentrated solution of the test compound in DMSO was pipetted into a black low volume 384well microtiter plate (Greiner Bio-One, Frickenhausen, Germany), 3 μl of a solution of 24 nM GST-MEK1 and 166.7 μM adenosine-tri-phosphate (ATP) in assay buffer [50 mM Tris/HCl pH 7.5, 10 mM MgCl2, 2 mM dithiothreitol, 0.01% (v/v) Igepal CA 630 (Sigma), 5 mM β-phospho-glycerol] were added and the mixture was incubated for 10 min at 22° C. to allow pre-binding of the test compounds to the GST-MEK1 before the start of the kinase reaction. Then the kinase reaction was started by the addition of 2 μl of a solution of Cot1 in assay buffer and the resulting mixture was incubated for a reaction time of 20 min at 22° C. The concentration of Cot1 in the assay was adjusted depending of the activity of the enzyme lot and was chosen appropriate to have the assay in the linear range, typical enzyme concentrations were in the range of about 2 ng/μl (final conc. in the 5 μl assay volume). The reaction was stopped by the addition of 5 μl of a solution of HTRF detection reagents (13 nM anti GST-XL665 [# 61GSTXLB, Fa. Cis Biointernational, Marcoule, France], 1 nM Eu-cryptate labelled anti-phospho-MEK 1/2 (Ser217/221) [#61P17KAZ, Fa. Cis Biointernational],) in an aqueous EDTA-solution (100 mM EDTA, 500 mM KF, 0.2% (w/v) bovine serum albumin in 100 mM HEPES/NaOH pH 7.5).
The resulting mixture was incubated 2 h at 22° C. to allow the binding of the phosphorylated GST-MEK1 to the anti-GST-XL665 and the Eu-cryptate labelled anti-phospho-MEK 1/2 antibody. Subsequently the amount of Ser217/Ser221-phosphorylated substrate was evaluated by measurement of the resonance energy transfer from the Eu-Cryptate-labelled anti-phospho-MEK antibody to the anti-GST-XL665. Therefore, the fluorescence emissions at 620 nm and 665 nm after excitation at 350 nm was measured in a HTRF reader, e.g. a Rubystar (BMG Labtechnologies, Offenburg, Germany) or a Viewlux (Perkin-Elmer). The ratio of the emissions at 665 nm and at […] was taken as the measure for the amount of phosphorylated substrate. […]

A375 cells = assay: A375 proliferation crystal violet (CV) assay; assay type: cell-based; details: Homo sapiens, A-375, 96 h, 4 days, crystal violet staining
Method: Cultivated human A375 cells were plated out in a density of 1500 cells/measurement point in 200 μl of growth medium (DMEM/HAMS F12 (Biochrom; FG4815) with 10% FBS and 2 mM Glutamine) in a 96-well multititer plate. After 24 hours, the cells from a plate (zero plate) were stained with crystal violet (see below), while the medium in the other plates was replaced by fresh culture medium (200 μl) to which the test substances had been added in various concentrations (0 μM, and in the range 0.3 nM -30 μM; the final concentration of the solvent dimethyl sulphoxide was 0.5%). The cells were incubated in the presence of the test substances for 4 days. The cell proliferation was determined by staining the cells with crystal violet: the cells were fixed by adding 20 μl/measurement point of an 11% glutaraldehyde solution at room temperature for 15 min. After the fixed cells had been washed three times with water, the plates were dried at room temperature. […] The dye was dissolved by adding 100 μl/measurement point of a 10% acetic acid solution, and the extinction was determined by photometry at a wavelength of 595 nm. The percentage change in cell growth was calculated by normalizing the measurements to the extinctions of the zero point plate (=0%) and the extinction of the untreated (0 μM) cells (=100%). The IC50 values were determined by means of a 4-parameter fit using the company's own software.

MEK1/2 = details: cited from earlier work
colon cancer = details: oral treatment, mouse models; cited from earlier work

T1 sequence (Q02750 whole entry): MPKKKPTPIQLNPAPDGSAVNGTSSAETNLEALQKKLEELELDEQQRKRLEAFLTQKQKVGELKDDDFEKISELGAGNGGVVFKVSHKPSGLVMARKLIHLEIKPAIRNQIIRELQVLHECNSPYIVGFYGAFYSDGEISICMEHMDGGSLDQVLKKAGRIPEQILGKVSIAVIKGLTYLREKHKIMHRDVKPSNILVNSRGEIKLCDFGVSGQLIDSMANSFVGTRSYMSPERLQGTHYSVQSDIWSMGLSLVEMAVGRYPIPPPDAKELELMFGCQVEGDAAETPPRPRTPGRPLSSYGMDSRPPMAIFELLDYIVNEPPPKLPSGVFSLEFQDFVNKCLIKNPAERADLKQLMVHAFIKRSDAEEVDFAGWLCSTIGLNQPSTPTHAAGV

IC50 (MEK1) | IC50 (A375 cells) | SMILES | IC50 (MEK1/2) | colon cancer growth in vivo (colon cancer)
< 300 nM | < 100 nM | CCS(=O)(=O)Nc1cccc(Oc2cc(F)cc(Nc3ccc(I)cc3F)c2C(N)=O)c1 [Example Compound 1.1, 2-(3-ethanesulfonylamino-phenoxy)-4-fluoro-6-(2-fluoro-4-iodo-phenylamino)-benzamide] | – | –
< 300 nM | – | CCS(=O)(=O)Nc1cccc(COc2cc(F)cc(Nc3ccc(I)cc3F)c2C(N)=O)c1 [Example Compound 3.1, 2-(3-ethanesulfonylamino-benzyloxy)-4-fluoro-6-(2-fluoro-4-iodo-phenylamino)-benzamide] | – | –

The remaining lines, values behind:

SMILES | IC50 (MEK1) | IC50 (A375 cells) | IC50 (MEK1/2) | colon cancer growth in vivo (colon cancer)
CC(C)S(=O)(=O)Nc1cncc(Oc2cc(F)cc(Nc3ccc(I)cc3F)c2C(N)=O)c1 [Example Compound 2.1, 4-fluoro-2-(2-fluoro-4-iodo-phenylamino)-6-[5-(propane-2-sulfonylamino)-pyridin-3-yloxy]-benzamide] | < 300 nM | – | – | –
CC(C)S(=O)(=O)Nc1cccc(Oc2cc(F)cc(Nc3ccc(I)cc3F)c2C(N)=O)c1 [Example Compound 1.2, 4-fluoro-2-(2-fluoro-4-iodo-phenylamino)-6-[3-(propane-2-sulfonylamino)-phenoxy]-benzamide] | < 300 nM | < 100 nM | – | –
O=C(NOCC1CC1)c1ccc(F)c(F)c1Nc1ccc(I)cc1Cl [PD184352] | – | – | low nanomolar range | inhibit colon cancer growth in vivo in mouse models
